From patent US11020337B2, “Aspartyl-dipeptides for skin care and cosmetic use” (Cysal GmbH, priority 2016, dated 2021)

How the values were obtained:
[1] = system: EpiDerm 3D-Epidermal skin models (normal human keratinocytes); assay: MTT-Vitality-Assay, in-vitro epidermal vitality/viability; format: cell-based; details: 30 μl of 5% aqueous solution once a day
Method: (§1) Experimental application of test-products: In this study 30 μl of a 5% aqueous solution of the test substances were applied as follows using a calibrated pipette:
(§2) Application was done in duplicates (2 models) at all time points and models were cultured and analyzed in parallel under identical conditions.
(§3) EpiDerm 3D-Epidermal skin models: Nowadays in vitro test procedures are a very good alternative to animal experiments and become increasingly important for the cosmetic industry. For cosmetic products which are used over a longer period, dermatological tests for harmlessness are an essential prerequisite for a high application safety and customer satisfaction. During the development of new cosmetic products biological effects of particular active ingredients or complete formulations turn into focus of cosmetic interests. The human EpiDerm skin model is an in vitro reconstructed multilayered epithelial tissue which is cultured of normal human keratinocytes. […] The model is mitotically as well as metabolically active and expresses typical differentiation marker like pro-fillagrin 1 and cytokeratin 1/10.
This term summarizes all metabolic activities which cells need for their basic requirements as well as for growth and proliferation. An established method to measure vitality of cells and tissues is the MTT-Vitality-Assay. […] The formazan crystals precipitate into the cellular cytosol, whereby the amount of precipitate correlates quantitatively with the general cellular vitality. Therefore the MTT-Assay can be considered as an indicator for the vitality or “Fitness” of a tissue, because cellular processes like respiration and energy extraction lead to the reduction of MTT.
Aim of this experiment was to examine the potential of the test substances to vitalize the tissue. For this purpose 3D-Epidermis skin models were used. […] After incubation period the bottom of model jars were dabbed with a sterile wipe to remove excessive medium/MTT mix. Models were transferred to a new sterile 24 well plate and 2 ml isopropyl was added subsequently. To avoid evaporation, plates were sealed with parafilm, covered with tinfoil and incubated 2 h on a shaker to extract formazan crystals. Optical density of released crystals of all extracts was determined at 570 nm. Measured values were analyzed and assessed. […] The vitality was derived from averages of determined ODs whereby the water treated, optimal cultured control was set as 100% vitality [vitality: 100*(ODtest substance/ODcontrol)].

[2] = system: basal keratinocytes of 3D-Epidermal skin models; assay: Click-iT EdU proliferation rate of basal keratinocytes; format: cell-based, human; details: topical, 30 μl of 5% aqueous solution
Method: as §1
Proliferation testing of basal Keratinocytes (Example 2): topically with air exposed models as reference and analysis time points for proliferation rate after 3 and 6 days.
as §2
as §3, with “1/10. […]” for “1/10.”
Evaluation of the proliferation rate: Out of every used skin model, 6 mm punch biopsies were taken, embedded in O.C.T.™, cryoconserved in the gaseous phase of liquid nitrogen and subsequently cut into 5-6 μm sections. Nuclei from every section were counted (blue fluorescence, DAPI) and the percentage of proliferating nuclei (red fluorescence) was determined.
Fluorescence microscopy: Click-iT®-EdU tagged cells were stained in red (λex 594 nm). […] Click-iT®-EdU and DAPI stained cells were recorded solely and merged subsequently. The fluorescence analysis and documentation was performed with the ZEISS, Axio Scope A1HAL 100. […]

[3] = system: crow's feet wrinkles; assay: In-vivo single wrinkle depth (PRIMOS optical 3D measurement); parameters: species or system human; details: 5% aqueous solution, four weeks, 5 subjects
Excerpt: (§4) Panelists: The test panel included 5 adult female volunteers with dry skin, elasticity less than average and crow's feet wrinkles next to the eyes. At the beginning of the application test all subjects have been checked by a dermatologist. Only subjects were allowed to join the trial with no pathological skin modifications diagnosed. During the application test all subjects had in case of acute skin irritations access to daily consultations from an attending medical specialist who was accompanying the test. Daily consultations about the skin conditions through the test-accompanying medical doctor were possible.
Experimental application of test-products: Test areas were around 3 cm in diameter. […]
Single wrinkles depth: Optical 3D measurement using a PRIMOS (Phaseshift Rapid In vivo Measurement Of Skin) compact portable system was used for this measurement. PRIMOS comact portable was applied on an area of 40×30 mm and digital fotos of the measured area were made. […] Finally, the measurement data generated were processed and then evaluated. […] With the PRIMOS software the changes in structure of the epidermis can be classified quantitatively with the aid of various standardized surface measurement parameters in accordance with DIN (Deutsche Industrie Norm, German industrial standards) and ISO (International Standards Organisation). […] The skinfold depth can be measured by determining the distances. […]

[4] = system: human skin; assay: In-vivo skin elasticity test (cutometer MPA 580, R2-values); details: 4 weeks; for improvement in skin elasticity, treated area: twice a day
Excerpt: as §4
(§5) Experimental application of test-products: Test areas were around 3 cm in diameter. The test products were applied on the volar forearm (5% and 10% aqueous solutions; skin elasticity and hydration tests) as well as the crows's feet wrinkles (5% aqueous solution). The application of the preparations have been done twice a day during the whole test period (4 weeks). The subjects have been instructed not to use other care products in this test area. Untreated skin areas were used as control.
Elasticity test: The test was performed with the cutometer MPA 580 Fa. Courage+Khazaka electronics GmbH. The principle of measurement is based on the suction/elongation principle. To obtain start conditions the instrument was adjusted for 450 mbar low pressure. The suction time was defined to 5 secs. The relaxation time (abrupt loss of low pressure) was fixed to 3 secs. All measurements have been repeated three times for each test and control areas. Afterwards a mean for R2-values obtained from three independent measurements per area has been calculated. To perform measurements the instrument was adjusted for the named parameters before the test was started. All parameter adjustments described in literature as mainly used and reliable remained unchanged during the measurements. The cutometry has been performed at the beginning and at the end of the application period. R2-values have been measured and analyzed for each subject.

[5] = system: human skin; assay: In-vivo skin moisture (Corneometer CM 825); details: 4 weeks; for improvement in skin moisture, treated area: twice a day
Excerpt: as §4, §5
Skin moisture: this aspect was tested using the Corneometer CM 825 (Firma Courage+Khazaka). The test products were applied twice a day on the relevant pre-determined skin areas during the application period. The test persons were acclimatized for 45 minutes at a temperature of 22 degrees centigrade and 60% relative humidity before every measurement, then, the skin measurement values were measured at three different places within the respective testing areas. The recorded values were averaged. Untreated skin close to the test area was used as the control measurement area. Measurements were taken before the application and after four weeks of application. All measurements were performed at least 10-12 hours after the last application of the formerly used product resp. the test product.

[6] = 3 days incubation, air exposed models 11.21%
[7] = crow's feet area, 5% aqueous solution
[8] = volar forearm, 5% aqueous solution
[9] = volar forearm, 10% aqueous solution
[10] = crow's feet (next to the eye), 5% aqueous solution
[11] = crow's feet (next to the eyes), 5% aqueous solution

| SMILES | vitality (MTT, water treated control = 100%) ([1]; 48 h systematical (systemic) incubation, FIG. 1) [%] | vitality (MTT, water treated control = 100%) ([1]; 48 h topical application, FIG. 2) [%] | vitality (MTT, water treated control = 100%) ([1]; 120 h systemical incubation, FIG. 3) [%] | vitality (MTT, water treated control = 100%) ([1]; 120 h topical application, FIG. 4) [%] | percentage of proliferative cells (nuclei) [2, 6] [%] | average improvement in the wrinkle depth [3] [%] | average improvement in skin elasticity after control area deduction [4, 7] [%] | average improvement in skin elasticity after control area deduction ([4]; forearm, 5% aqueous solution) [%] | average improvement in skin elasticity after control area deduction ([4]; forearm, 10% aqueous solution) [%] | improvement in skin elasticity, treated area [4, 8] | improvement in skin elasticity, treated area [4, 9] [%] | improvement in skin moisture, treated area [5, 10] | average improvement in skin moisture after control area deduction [5, 11] [%] | average improvement in skin moisture after control area deduction [5, 8] [%] | improvement in skin moisture, treated area [5, 8] | average improvement in skin moisture after control area deduction [5, 9] [%] | improvement in skin moisture, treated area [5, 9] [%] | percentage of proliferative cells (nuclei) ([2]; 6 days incubation, air exposed models 17.11%) [%] | improvement in skin elasticity, treated area ([4]; crow's feet, 5% aqueous solution) [%] |
| --- | --- | --- | --- | --- | --- | --- | --- | --- | --- | --- | --- | --- | --- | --- | --- | --- | --- | --- | --- |
| N=C(N)NCCC[C@H](NC(=O)C[C@H](N)C(=O)O)C(=O)O [β-L-aspartyl-L-arginine] | 127.23 | 112.36 | 118.16 | 120.61 | 30.98 | 16.4 | 8.08 | 9.26 | 8.85 | about 9.11% | ~8.70 | about 1.873% | 1.56 | 0.82 | about 1.126% | 0.56 | ~0.871 | – | – |
| NCCCC[C@H](NC(=O)C[C@H](N)C(=O)O)C(=O)O [β-L-aspartyl-L-lysine] | – | – | – | – | 16.33 | 20.02 | 11.21 | 6.18 | – | about 6.03% | – | about 16.10% | 15.79 | 1.74 | about 2.05% | – | – | 22.12 | 11.06 |
